We go through 18 compounds from patent US6630499B1, “Control of arthropods in animals” (Aventis CropScience, S.A., priority 1998, dated 2003).

What all share (type): in vivo
One series can be described thus: Emesis in treated dogs. As to conditions: 10 mg/kg; for % Emesis: dogs. Here is the method: (§1) By the term “emesis” is meant vomiting. Generally an emetic substance elicits emesis in less than 24 hours after administration, usually less than 8 hours, more usually less than 2 hours. By the term “substantially non-emetic” is meant that, generally, when a compound or composition of the invention is administered to a population of animals, more than 70% (or at least ⅔) of the animals are free of emesis. Preferably, more than 80%, most preferably more than 90%, of said population is free of emesis.
(§2) In the animals treated with the compounds above, there was substantially no emesis after 2, 8 and 24 hours. Generally long-term control of fleas and ticks was provided in dogs. In the cats treated, there was commercially acceptable control of fleas for at least one day post treatment.
(§3) The compounds listed below were formulated and tested as described in Biological Example 1, again at the dosage level of active ingredient of 10 mg/kg in dogs and 20 mg/kg in cats. Results at 1 DPT (day post-treatment) are tabulated below, where the compound numbers are the same as those listed in Tables 1, 2, 4, 5, 6, 7, 8, 9, 10, 11, 12 and 13 hereinabove.

Another series is described as follows: Emesis in treated cats. The conditions noted are these: 20 mg/kg; for % Emesis: cats. How it is done: as §1, §2, §3
Series [1] concerns cat fleas (Ctenocephalides felis). The series can be described thus: Control of cat fleas on treated cats (Biological Examples 1-3). The conditions noted are these: 20 mg/kg; for % Control 1 DPT (Fleas): cats, 30 mg/mL in 1:1 dimethyl sulfoxide/corn oil, 1 day post-treatment, versus placebo group. How it is done:
(§4) All dogs were infested with cat fleas (Ctenocephalides felis) and with ticks (Rhipicephalus sanguineus) 1 day prior to administration of the compound. Cats were only infested with fleas. The initial flea and tick counts were performed 1 day after the administration of the compounds. At 7, 14, 21 and 28 days after treatment the dogs were re-infested with ticks and 8, 15, 22 and 29 days after treatment the dogs and cats were re-infested with fleas. At 1, 9, 16, 23 and 30 days after treatment the control of fleas and ticks in treated dogs and cats was determined versus a group of infested dogs and cats which received a placebo consisting of a 1:1 volume/volume solution of dimethyl sulfoxide and corn oil. To determine the efficacies of the compounds, the arthropods were combed from the animals and counted.
as §3
(§5) Testing was carried out as described in Biological Example 1. […] The Huang et al compound was deemed to have insufficient activity to be tested in cats.

Series [2] shares this test system. Description: Control of cat fleas on treated dogs (Biological Examples 1-3). As to conditions: 10 mg/kg; for % Control 1 DPT (Fleas/Ticks): Fleas: dogs, 30 mg/mL in 1:1 dimethyl sulfoxide/corn oil, 1 day post-treatment, versus placebo group. Here is the method:
as §4, §3, §5

In series [3] the test system is ticks (Rhipicephalus sanguineus). The series can be described thus: Control of ticks on treated dogs (Biological Examples 1-3). As to conditions: 10 mg/kg; for % Control 1 DPT (Fleas/Ticks): Ticks: dogs, 30 mg/mL in 1:1 dimethyl sulfoxide/corn oil, 1 day post-treatment, versus placebo group. How it is done:
as §4, §3, §5

For the compound `COCC(=O)N(C)c1c(SC(F)(F)F)c(C#N)nn1-c1c(Cl)cc(C(F)(F)F)cc1Cl` [Compound 2-1, 1-(2,6-dichloro-4-trifluoromethylphenyl)-3-cyano-4-trifluoromethylthio-5-(N-methyl)methoxyacetamidopyrazole], the “% Emesis” value in the series “Emesis in treated dogs” and in the series “Emesis in treated cats” was 0% throughout. Further, the emesis entry in “Emesis in treated dogs” (group of 3 dogs) is reported as “no emesis (0/3)”. Besides, the vomiting entry in “Emesis in treated cats” (group of 4 cats) is “no vomiting”. In series [1], the “% Control 1 DPT (Fleas)” value is reported as 100%. The “control of fleas for at least a one month period” value in series [1] (group of 4 cats, at least one month) is 100%. Also, the “% Control 1 DPT (Fleas/Ticks): Fleas” value in series [2] is given as 100/100%. For the same compound, in series [2] (group of 3 dogs, 30 DPT), the “control of fleas at 30 DPT” value was 93%. Besides, the “% Control 1 DPT (Fleas/Ticks): Ticks” value in series [3] is on record as 100/100%. The “control of ticks at 30 DPT” value in series [3] (group of 3 dogs, 30 DPT) was 100%.

`CCOC(C)C(=O)N(C)c1c(SC(F)(F)F)c(C#N)nn1-c1c(Cl)cc(C(F)(F)F)cc1Cl` (racemic) [Compound 116-1]: the “% Emesis” value in “Emesis in treated dogs” and in the series “Emesis in treated cats” was 0% throughout. The “% Control 1 DPT (Fleas)” value in series [1] was determined as 100%. The “% Control 1 DPT (Fleas/Ticks): Fleas” value in series [2] is 79%. Besides, in series [3], the “% Control 1 DPT (Fleas/Ticks): Ticks” value came to 100%.

Turning to `N#Cc1nn(-c2c(Cl)cc(C(F)(F)F)cc2Cl)c(N=CNCC(F)(F)F)c1S(=O)(=O)C(F)(F)F` [Compound 230], the “% Emesis” value in “Emesis in treated dogs” and in “Emesis in treated cats” was 0% throughout. Also, the “% Control 1 DPT (Fleas)” value in series [1] is 98%. The “% Control 1 DPT (Fleas/Ticks): Fleas” value in series [2] was 100%. In series [3], the “% Control 1 DPT (Fleas/Ticks): Ticks” value stood at 80%.

Turning to `COC(=O)N(c1c(SC(F)(F)F)c(C#N)nn1-c1c(Cl)cc(C(F)(F)F)cc1Cl)C(C)C` [Compound 79-1], the “% Emesis” value in the series “Emesis in treated dogs” and in the series “Emesis in treated cats” was 0% throughout. For the same compound, in series [1], the “% Control 1 DPT (Fleas)” value was found to be 87%. Besides, the “% Control 1 DPT (Fleas/Ticks): Fleas” value in series [2] came to 96%. For the same compound, the “% Control 1 DPT (Fleas/Ticks): Ticks” value in series [3] is on record as 86%.

Turning to `COCC(=O)N(C)c1c([S+]([O-])C(F)(F)F)c(C#N)nn1-c1c(Cl)cc(C(F)(F)F)cc1Cl` (centres unmarked) [Compound 2-3], the “% Emesis” value in “Emesis in treated dogs” amounted to 33%; in “Emesis in treated cats”, 0%. The “% Control 1 DPT (Fleas)” value in series [1] was 100%. The “% Control 1 DPT (Fleas/Ticks): Fleas” value in series [2] was 100%. Also, the “% Control 1 DPT (Fleas/Ticks): Ticks” value in series [3] amounted to 99%.

As to `CC(C)OC(=O)N(C)c1c(SC(F)(F)F)c(C#N)nn1-c1c(Cl)cc(C(F)(F)F)cc1Cl` [Compound 69-1], the “% Emesis” value in “Emesis in treated dogs” and in “Emesis in treated cats” was 0% in each case. Besides, in series [1], the “% Control 1 DPT (Fleas)” value was 100%. Further, the “% Control 1 DPT (Fleas/Ticks): Fleas” value in series [2] was found to be 98%. Besides, the “% Control 1 DPT (Fleas/Ticks): Ticks” value in series [3] is 94%.

In the case of `CC(C)N(C(=O)C1CCCO1)c1c(SC(F)(F)F)c(C#N)nn1-c1c(Cl)cc(C(F)(F)F)cc1Cl` (centres unmarked) [Compound 3-7], the “% Emesis” value in the series “Emesis in treated dogs” and in “Emesis in treated cats” was 0% throughout. In addition, the “% Control 1 DPT (Fleas)” value in series [1] is 100%. Further, in series [2], the “% Control 1 DPT (Fleas/Ticks): Fleas” value was 100/100%. For the same compound, the “% Control 1 DPT (Fleas/Ticks): Ticks” value in series [3] is recorded as 100/100%.

Regarding `CN(C(=O)c1ccc(C(F)(F)F)cc1)c1c(SC(F)(F)F)c(C#N)nn1-c1c(Cl)cc(C(F)(F)F)cc1Cl` [Compound 127-1], the “% Emesis” value in “Emesis in treated dogs” and in “Emesis in treated cats” was 0% throughout. In series [1], the “% Control 1 DPT (Fleas)” value was determined as 84%. The “% Control 1 DPT (Fleas/Ticks): Fleas” value in series [2] is 100%. In addition, in series [3], the “% Control 1 DPT (Fleas/Ticks): Ticks” value stood at 97%.

For `COCCOCC(=O)N(C)c1c(S(=O)(=O)C(F)(F)F)c(C#N)nn1-c1c(Cl)cc(C(F)(F)F)cc1Cl` [Compound 120-1], the “% Emesis” value in “Emesis in treated dogs” and in “Emesis in treated cats” was 0% throughout. The “% Control 1 DPT (Fleas)” value in series [1] worked out at 100%. Moreover, the “% Control 1 DPT (Fleas/Ticks): Fleas” value in series [2] came out at 97%. Also, the “% Control 1 DPT (Fleas/Ticks): Ticks” value in series [3] came out at 78%.

Turning to `COCC(=O)N(C)c1c(S(=O)(=O)C(F)(F)F)c(C#N)nn1-c1c(Cl)cc(C(F)(F)F)cc1Cl` [Compound 2-5], the “% Emesis” value in “Emesis in treated dogs” came to 33%; in the series “Emesis in treated cats” it was 0%. Moreover, the “% Control 1 DPT (Fleas)” value in series [1] was found to be 100%. Moreover, the “% Control 1 DPT (Fleas/Ticks): Fleas” value in series [2] is on record as 100%. In addition, the “% Control 1 DPT (Fleas/Ticks): Ticks” value in series [3] was 95%.

As for `CN(C(=O)C1CCCO1)c1c(SC(F)(F)F)c(C#N)nn1-c1c(Cl)cc(C(F)(F)F)cc1Cl` (racemic) [Compound 1-7], the results for the “% Emesis” value in “Emesis in treated dogs” and in the series “Emesis in treated cats” were 0% and 25%, respectively. In addition, in series [1], the “% Control 1 DPT (Fleas)” value is on record as 100%. Also, the “% Control 1 DPT (Fleas/Ticks): Fleas” value in series [2] is recorded as 100%. The “% Control 1 DPT (Fleas/Ticks): Ticks” value in series [3] turned out to be 97%.

As for `CCCN(C(=O)OC(C)C)c1c(SC(F)(F)F)c(C#N)nn1-c1c(Cl)cc(C(F)(F)F)cc1Cl` [Compound 77-1], the “% Emesis” value in “Emesis in treated dogs” and in “Emesis in treated cats” was 0% each time. For the same compound, the “% Control 1 DPT (Fleas)” value in series [1] is on record as 99%. The “% Control 1 DPT (Fleas/Ticks): Fleas” value in series [2] is given as 98%. Further, the “% Control 1 DPT (Fleas/Ticks): Ticks” value in series [3] is 10%.

As for `CC(=O)N(C)c1c(SC(F)(F)F)c(C#N)nn1-c1c(Cl)cc(C(F)(F)F)cc1Cl` [Compound 1-1], the “% Emesis” value in “Emesis in treated dogs” and in “Emesis in treated cats” was 0% each time. Moreover, the “% Control 1 DPT (Fleas)” value in series [1] is on record as 99%. Moreover, the “% Control 1 DPT (Fleas/Ticks): Fleas” value in series [2] worked out at 91%. The “% Control 1 DPT (Fleas/Ticks): Ticks” value in series [3] is given as 82%.

For the compound `CCCOC(=O)N(C)c1c(SC(F)(F)F)c(C#N)nn1-c1c(Cl)cc(C(F)(F)F)cc1Cl` [Compound 70-1], the “% Emesis” value in the series “Emesis in treated dogs” and in “Emesis in treated cats” was 0% each time. For the same compound, the “% Control 1 DPT (Fleas)” value in series [1] was determined as 85%. For the same compound, the “% Control 1 DPT (Fleas/Ticks): Fleas” value in series [2] amounted to 99%. For the same compound, the “% Control 1 DPT (Fleas/Ticks): Ticks” value in series [3] turned out to be 100%.

As for `CN(C(=O)C1CCCO1)c1c(S(=O)(=O)C(F)(F)F)c(C#N)nn1-c1c(Cl)cc(C(F)(F)F)cc1Cl` (racemic) [Compound 1-11], the “% Emesis” value in the series “Emesis in treated dogs” and in the series “Emesis in treated cats” was 0% each time. In series [1], the “% Control 1 DPT (Fleas)” value stood at 98%. Moreover, the “% Control 1 DPT (Fleas/Ticks): Fleas” value in series [2] is recorded as 100/100%. For the same compound, the “% Control 1 DPT (Fleas/Ticks): Ticks” value in series [3] is given as 100/100%.

Consider `CC(=O)N(C)c1c(S(=O)(=O)C(F)(F)F)c(C#N)nn1-c1c(Cl)cc(C(F)(F)F)cc1Cl` [Compound 1-5], for which the “% Emesis” value in the series “Emesis in treated dogs” is reported as 0%; in “Emesis in treated cats”, 33%. Moreover, the “% Control 1 DPT (Fleas)” value in series [1] amounted to 0%. The “% Control 1 DPT (Fleas/Ticks): Fleas” value in series [2] is reported as 98%. For the same compound, in series [3], the “% Control 1 DPT (Fleas/Ticks): Ticks” value is given as 84%.

Take `CCOC(=O)N(CC)c1c(SC(F)(F)F)c(C#N)nn1-c1c(Cl)cc(C(F)(F)F)cc1Cl` [Compound 72-1]: the “% Emesis” value in “Emesis in treated dogs” and in “Emesis in treated cats” was 0% throughout. For the same compound, the “% Control 1 DPT (Fleas)” value in series [1] was 99%. In series [2], the “% Control 1 DPT (Fleas/Ticks): Fleas” value was 100%. In addition, the “% Control 1 DPT (Fleas/Ticks): Ticks” value in series [3] was 97%.

Take `CN(C)C=Nc1c(SC(F)(F)F)c(C#N)nn1-c1c(Cl)cc(C(F)(F)F)cc1Cl` [Compound 219, 3-cyano-1-(2,6-dichloro-4-trifluoromethylphenyl)-5-N′-dimethylaminomethylideneamino-4-trifluoromethylthiopyrazole]: the figures for the “% Emesis” value in “Emesis in treated dogs” and in “Emesis in treated cats” were 33% and 25%, respectively. For the same compound, in series [1], the “% Control 1 DPT (Fleas)” value is listed as 100%. For the same compound, the “% Control 1 DPT (Fleas/Ticks): Fleas” value in series [2] was determined as 97%. For the same compound, the “% Control 1 DPT (Fleas/Ticks): Ticks” value in series [3] was found to be 80%.
